Laboratory results published in patent US7115268B1, “Peptides useful for reducing symptoms of toxic shock syndrome and septic shock” (The Rockefeller University, priority 1997, dated 2006).
“And” between values parts separate entries of the source, which are not always exact repeats. Equal values may be shown once. “Also recorded” adds a separate entry of the source. Read-outs that look alike come from different tables or passages of the source.

Experiments:
[1] = parameters: species or system New Zealand White rabbits; conditions: rabbit, in vivo; for antibody titers to the immunizing peptide (ELISA): sc
[2] = parameters: species or system mice; conditions: mouse, in vivo
[3] = tested on: PBMC stimulated with SEB; type: cell-based, human; conditions: 72 hours
[4] = tested on: PBMC stimulated with SEC; type: cell-based, human; conditions: 72 hours
[5] = tested on: PBMC stimulated with SED; type: cell-based, human; conditions: 72 hours
[6] = tested on: PBMC stimulated with SPEC; type: cell-based, human; conditions: 72 hours
[7] = tested on: PBMC stimulated with SPEA; type: cell-based, human; conditions: 72 hours
[8] = tested on: PBMC stimulated with TSST-1; type: cell-based, human; conditions: 72 hours
[9] = tested on: PBMC stimulated with SPEG; type: cell-based, human; conditions: 72 hours
[10] = tested on: PBMC stimulated with SPEH; type: cell-based, human; conditions: 72 hours
[11] = tested on: PBMC stimulated with SPEZ; type: cell-based, human; conditions: 72 hours
[12] = tested on: purified MHC class II molecules; type: binding
[13] = target: SEB (Staphylococcus aureus, UniProt P01552); conditions: mouse, in vivo
[14] = target: SPEA (Streptococcus pyogenes phage T12, UniProt P0DJY8); conditions: mouse, in vivo
[15] = target: TSST-1 (Staphylococcus aureus, UniProt P06886); conditions: mouse, in vivo
Chain of TSST-1 (P06886 41-234 limits assumed): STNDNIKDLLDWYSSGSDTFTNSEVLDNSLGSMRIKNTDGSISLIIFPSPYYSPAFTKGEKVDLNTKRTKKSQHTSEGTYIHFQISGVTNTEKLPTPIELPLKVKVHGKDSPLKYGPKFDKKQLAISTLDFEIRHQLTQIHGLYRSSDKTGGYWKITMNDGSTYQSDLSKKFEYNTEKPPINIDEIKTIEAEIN

Chain of SEB (P01552 28-266 limits assumed): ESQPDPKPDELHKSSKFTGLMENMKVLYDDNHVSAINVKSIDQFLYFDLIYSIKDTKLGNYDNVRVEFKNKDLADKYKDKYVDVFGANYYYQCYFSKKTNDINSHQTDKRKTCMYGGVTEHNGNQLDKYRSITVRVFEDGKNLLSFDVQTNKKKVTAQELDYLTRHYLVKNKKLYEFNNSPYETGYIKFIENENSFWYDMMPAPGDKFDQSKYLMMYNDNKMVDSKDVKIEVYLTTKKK
Chain of SPEA (P0DJY8 31-251): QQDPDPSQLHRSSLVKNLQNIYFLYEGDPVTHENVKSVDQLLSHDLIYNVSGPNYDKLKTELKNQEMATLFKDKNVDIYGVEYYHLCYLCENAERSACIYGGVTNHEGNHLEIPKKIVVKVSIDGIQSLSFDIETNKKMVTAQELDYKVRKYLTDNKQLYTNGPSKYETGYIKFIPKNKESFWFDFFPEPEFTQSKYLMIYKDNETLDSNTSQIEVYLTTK

**Q.** Which “antibody titers to the immunizing peptide (ELISA)” value (“antibody titers” below) [1] does the source give for CMYGGVTEHEGNGC* [compound 6344] here?
**A.** high titers

**Q.** For CMYGGVTEHEGN [peptide 6343], which “induction of detectable antibodies” value [1] is on record?
**A.** does not induce detectable antibodies

**Q.** And the “induction of detectable antibodies” value [2]?
**A.** does not induce detectable antibodies

**Q.** And the “inhibition of blastogenesis (tritiated thymidine incorporation)” value [3]?
**A.** inhibited blastogenesis

**Q.** What about the “inhibition of blastogenesis, dose response” value [3] of the same substance?
**A.** dose-response inhibition of blastogenesis

**Q.** And the “inhibitory activity of SEB compared with peptide 6346 or peptide 6348” value [3]?
**A.** more inhibitory activity

**Q.** And the “inhibition of blastogenesis (tritiated thymidine incorporation)” value [4]?
**A.** inhibited blastogenesis

**Q.** And the “inhibition of blastogenesis (tritiated thymidine incorporation)” value [5]?
**A.** inhibited blastogenesis

**Q.** And the “inhibition of blastogenesis (tritiated thymidine incorporation)” value [6]?
**A.** inhibited blastogenesis

**Q.** What about the “inhibition of blastogenesis (tritiated thymidine incorporation)” value [7] of the same substance?
**A.** inhibited blastogenesis

**Q.** And the “inhibition of blastogenesis (tritiated thymidine incorporation)” value [8]?
**A.** inhibited blastogenesis

**Q.** And the “inhibition of blastogenesis (tritiated thymidine incorporation)” value [9]?
**A.** inhibited blastogenesis

**Q.** What about the “inhibition of blastogenesis (tritiated thymidine incorporation)” value [10] of the same substance?
**A.** inhibited blastogenesis

**Q.** And the “inhibition of blastogenesis (tritiated thymidine incorporation)” value [11]?
**A.** inhibited blastogenesis

**Q.** And the “binding to the MHC complex” value [12]?
**A.** binds very strongly

**Q.** What about the “competition for the site of SEB binding on MHC (decreased anti-SEB antibody binding)” value [12] of the same substance?
**A.** able to compete effectively; also recorded: decreased anti-SEB binding at increased concentrations

**Q.** And the “Alive/Total SEB” value [13]?
**A.** 5 out of 6 and 5/6 (83%)

**Q.** What about the “Alive/Total SEB, percent alive” value [13] of the same substance?
**A.** 5/6 (83%)

**Q.** And the “Alive/Total SPEA” value [14]?
**A.** 2 out of 2 and 2/2 (100%)

**Q.** And the “Alive/Total SPEA, percent alive” value [14]?
**A.** 2/2 (100%)

**Q.** And the “Alive/Total TSST-1” value [15]?
**A.** 2 out of two and 2/2 (100%)

**Q.** What about the “Alive/Total TSST-1, percent alive” value [15] of the same substance?
**A.** 2/2 (100%)

**Q.** Which “antibody titers” value [1] does the source give for “CMYGGVTEHEGNKKNVTVQELDYKIRKYLVDNKKLYGC* [peptide 6348]” here?
**A.** high titer antibodies; also recorded: significant antibody titers

**Q.** With “CGKKNVTVQELDYKIRKYLVDNKKLYGC* [peptide 6346]” as the substance, how does the “antibody titers” value [1] read?
**A.** high titers
